US7803930B2, “Antisense modulation of apolipoprotein B-expression” (Isis Pharmaceuticals, Inc., priority 2002, dated 2010)
In the oligonucleotide strings, read from the 5' end, every base follows the letter of its sugar. An asterisk marks phosphorothioate; unmarked linkages are phosphodiester. Other units and linkages are bracketed, terminal groups are in braces. A string of capitals states the bases alone. e = 2'-O-(2-methoxyethyl) (MOE); [5mC] = 5-methylcytosine; d = 2'-deoxy (DNA)

Columns and labels:
[1] = Evaluation of steatosis in high fat fed animals treated for 6 weeks, liver histology; assay type: in vivo, mouse; details: high fat fed C57BL/6 mice; 6 weeks of treatment
Excerpt: Tissue resected from liver is immediately immersed in Tissue Tek OCT embedding compound (Ted Pella, Inc., Redding, Calif.) and frozen in a 2-methyl-butane dry ice slurry. Tissue sections are cut at a thickness of 4-5 μm and then fixed in 5% neutral-buffered formalin. Tissue sections are stained with hematoxylin and eosin following standard histological procedures to visualize nuclei and cytoplasm, respectively, and oil red 0 according to the manufacturer's instructions (Newcomers Supply, Middleton, Wis.) to visualize lipids.
Alternatively, tissues are fixed in 10% neutral-buffered formalin, embedded in paraffin, sectioned at a thickness of 4-5 μm, deparaffinized and stained with hematoxylin and eosin, all according to standard histological procedures.
Liver tissue from ISIS 147764 (SEQ ID NO: 109) and control-treated animals described in Example 21 was evaluated for steatosis at study termination following 6 weeks of treatment. Tissue sections were stained with oil red 0 and hematoxylin to visualize lipids and nuclei, respectively. Tissue sections were also stained with hematoxylin and eosin to visualize nuclei and cytoplasm, respectively.

[2] = High fat fed mice (Example 65): ALT and AST levels; assay type: in vivo, mouse; details: 10, 25 and 50 mg/kg
Method: (§1) Male C57Bl/6 mice were divided into the following groups, consisting of 5 animals each: (1) mice on a lean diet, injected with saline (lean control); (2) mice on a high fat diet; (3) mice on a high fat diet injected with 50 mg/kg of the control oligonucleotide 141923 (SEQ ID NO: 858); (4) mice on a high fat diet given 20 mg/kg atorvastatin calcium (Lipitor®, Pfizer Inc.); (5) mice on a high fat diet injected with 10, 25 or 50 mg/kg ISIS 147764 (SEQ ID NO: 109). Saline and oligonucleotide treatments were administered intraperitoneally twice weekly for 6 weeks. Atorvastatin was administered daily for 6 weeks. At study termination, liver samples were isolated from each animal and RNA was isolated for Northern blot qualitative assessment, DNA microarray and quantitative real-time PCR. Northern blot assessment and quantitative real-time PCR were performed as described by other examples herein.
(§2) Mouse apolipoprotein B mRNA and serum cholesterol levels, measured as described herein, were evaluated to confirm antisense inhibition by ISIS 147764 and ISIS 147483. […] The 50 mg/kg dose of ISIS 147483 increased ALT and AST levels.

[3] = tested on: mouse apolipoprotein B mRNA; assay: High fat fed mice (Example 65): mouse apolipoprotein B mRNA and serum cholesterol levels; assay type: in vivo
Method: as §1, §2

[4] = tested on: mouse apolipoprotein B mRNA; assay: Inhibition of mouse apolipoprotein B mRNA levels in primary mouse hepatocytes, real-time PCR; assay type: cell-based
In short: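 Primary CD-1 mouse hepatocytes transfected at 80% confluency with oligonucleotide plus 3.75 μg/mL LIPOFECTIN for 4-7 h, harvested 16-24 h after treatment. ApoB mRNA measured by real-time quantitative PCR against a standard curve of untreated-control mRNA, giving percent inhibition; GAPDH primers/probe also used.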

Row | Substance | steatosis vs saline treated animals (histology) [1] | ALT or AST levels [2] | mouse apolipoprotein B mRNA and serum cholesterol levels [3] | % INHIB ([4]; Table 3, 150 nM, averages from two experiments) | Percent Inhibition 50 nM ([4]; Table 4, 50 nM) | Percent Inhibition 150 nM ([4]; Table 4, 150 nM) | Percent Inhibition 300 nM ([4]; Table 4, 300 nM)
1 | GTCCCTGAAGATGTCAATGC (2'-MOE gapmer, further chemistry not given here) [ISIS 147764] | no difference in steatosis | did not significantly elevate | lowered in a dose-dependent manner |  |  |  | 
2 | 147764 (eG*eT*e[5mC]*e[5mC]*e[5mC]*dT*dG*dA*dA*dG*dA*dT*dG*dT*d[5mC]*eA*eA*eT*eG*e[5mC]) [compound 147764] |  |  |  | 97% | 48% | 84% | 90%
